Data as given in patent US5187168A, “Substituted quinazolines as angiotensin II antagonists” (American Home Products Corporation, priority 1991, dated 1993).

Test system: A II-infused rat
Assay: A II-infused rat model (ganglion-blocked, intraduodenal dosing), antihypertensive action
Assay type: in vivo
Settings: 10 mg/kg id, one half hour post-administration
Procedure: In accordance with their ability to antagonize angiotensin II, the compounds of this invention show antihypertensive action in the following A II-infused rat model. Rats are anesthetized with Dial-Urethane (0.60 mL/kg, ip) and the trachea cannulated with PE 240. Either one femoral artery and both femoral veins or the carotid artery and the corresponding jugular vein are cannulated with PE 50. If the jugular vein is cannulated, two cannulas are placed in the one vein. The initial portion of the duodenum (just distal to the stomach) is cannulated with PE 50 via a small midline incision. Arterial pressure and heart rate are measured from the arterial cannula. Ten to 15 min are allowed following surgery for stabilization of arterial pressure. Ganglion blockade is then produced by intravenous administration of mecamylamine at 3 mg/kg (1 mL/kg of a 3 mg/mL solution). Ganglion blockade causes a fall in arterial pressure of about 50 mmHg. Mecamylamine is given every 90 min throughout the remainder of the experiment. An A II infusion is then begun into the other venous cannula at […] (at 9.6 uLmin). The A II infusion returns arterial pressure to or slightly above the control level. Once arterial pressure has stabilized with the A II infusion, baseline values for mean arterial pressure (MAP) and heart rate are taken. […]

O=C(O)c1ccccc1-c1ccc(CNc2nc(C(F)(F)F)nc3ccsc23)cc1 [Example 36]
lowering of the A II dependent blood pressure (average): 45%
